From patent US20260144788A1, “COMPOUND FOR SHP2 PROTEIN DEGRADATION AND MEDICAL USES THEREOF” (UBIX THERAPEUTICS, INC., priority 2022, published 2026)
Values belong to the compound of their own block, whether it stands above or below them.

Biological target: T1, SHP2 protein (Homo sapiens, UniProt Q06124)
T1 sequence (Q06124 1-593): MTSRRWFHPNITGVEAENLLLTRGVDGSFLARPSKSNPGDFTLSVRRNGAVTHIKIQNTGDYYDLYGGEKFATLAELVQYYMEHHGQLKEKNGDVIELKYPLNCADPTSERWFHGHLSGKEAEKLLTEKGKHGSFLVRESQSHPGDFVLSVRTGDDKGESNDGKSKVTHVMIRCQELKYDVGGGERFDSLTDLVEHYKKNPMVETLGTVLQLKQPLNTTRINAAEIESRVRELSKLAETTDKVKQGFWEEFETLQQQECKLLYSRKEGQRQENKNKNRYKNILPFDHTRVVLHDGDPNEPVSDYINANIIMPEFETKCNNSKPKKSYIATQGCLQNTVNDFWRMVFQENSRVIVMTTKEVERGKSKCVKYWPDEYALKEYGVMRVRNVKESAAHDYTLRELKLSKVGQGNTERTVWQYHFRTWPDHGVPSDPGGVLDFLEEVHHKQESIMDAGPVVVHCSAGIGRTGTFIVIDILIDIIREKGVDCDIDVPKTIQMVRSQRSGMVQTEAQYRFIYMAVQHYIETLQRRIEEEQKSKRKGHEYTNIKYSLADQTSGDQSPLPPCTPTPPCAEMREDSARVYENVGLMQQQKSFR
Test: Measurement of SHP2 protein degradation in NCI-H358 cells (western blotting)
Type: cell-based
Parameters: endogenous in cells; host or cells: NCI-H358
Conditions: harvested after 24 hours
Method: H358 cells were treated with the synthesized Example compounds, and the amount of SHP2 protein present in the cells was measured using western blotting detection. The protocol for the experiment using H358 cells is as follows.
[Culture]H358 cells were resuspended in RPMI1640 with 25 mM HEPES (Hyclone, SH30255.01), 10% FBS (Hyclone, SV30207.02), 1% Penicillin-streptomycin (Welgene, LS 202-02) media, seeded at 3×10^5/mL in 12-well plates (1 mL each), and cultured for 24 hours.
[Compound treatment] Before compound treatment, the media was changed to 1 mL media, and then the 12-well plate was treated as follows. The 10 mM stock dissolved in DMSO was serially diluted 1/100 or 1/10 with the media, and the compound was treated to the cells at a final concentration of 0.001, 0.01, and 0.1 μM, and harvested after 24 hours. For the negative control group, DMSO diluted 1/1000 in the media was added (1 μL DMSO+999 μL media).
[Harvest]24 hours after compound treatment, each well was scraped with a cell lifter (SPL, 90040), pipetted with a 1 mL pipette, collected in a 1.5 mL microtube, and centrifuged (500 g, 5 min, 4° C.). The supernatant was removed, washed with PBS, and centrifuged again (500 g, 5 min, 4° C.). Afterwards, the supernatant was removed to prepare a pellet.
[Cell lysis and sample preparation] Lysis buffer was prepared as follows. RIPA buffer (Biosesang, RC2038-050-00)+0.5 mM PMSF (SIGMA, P7626)+1× Protease/Phosphatase Inhibitor (Cell signaling, 5872S) were added at 30 μL per tube, vortexed, and incubated on ice for 30 minutes. Afterwards, sonication was performed (10 sec pulse, 30 sec rest, 5 cycles, 70% amplification) and centrifugation was performed (15,000 g, 15 min, 4° C.), and only the supernatant was transferred to a microtube. A 96-well plate was diluted to 1/4 with 7.5 μL of RIPA buffer and 2.5 μL of sample, and 200 μL each was added after mixing A and B of the BCA Protein Assay Kit (iNtRON, 21071) in a ratio of 50:1. The plate was incubated at 37° C. for 30 minutes and left at room temperature for 10 minutes. After shaking for 10 seconds with a SYNERGY H1 microplate reader from BioTek, the absorbance was measured at 562 nm. The protein was quantified using the measured value to make a sample, which was then incubated at 70° C. for 10 minutes. The sample buffer used here was a mixture of NuPAGE or Bolt 4× sample buffer (Invitrogen) and each 10× sample reducing agent depending on the gel to be used, and RIPA buffer was used for protein dilution.
[Western blotting detection] Equal amounts of samples were loaded onto NuPAGE or Bolt Bis-tris 4-12% gradient gel and run (200 V, 35 min). This was transferred to […] NC membrane using Trans-blot Turbo (BIO-RAD) (1.3 A constant, 25 V limit, 15 min), and blocked with 5% skim milk/0.2% TBST for 45 min at room temperature. Anti-SHPTP2 Mouse (1:1,000 in 5% skim milk/0.2% TBST, size: 70 kDa, Santa cruz sc-7384) and Anti-GAPDH Rabbit (1:2,000 in 5% skim milk or 5% BSA/0.2% TBST, size: 37 kDa, CST #2118) were added and incubated overnight at 4° C. After washing three times with 0.2% TBST washing buffer for 5 minutes each, secondary antibodies Anti-Mouse IgG (1:5,000 in 5% skim milk/0.2% TBST, CST) and IRDye® 680RD Goat anti-Rabbit IgG Secondary Antibody (1:10,000 in 5% skim milk/0.2% TBST, LI-COR 926-68071) were added, and incubated on a rocker at room temperature for 45 minutes. The resultants were washed five times with 0.2% TBST washing buffer for 5 minutes each, and detected using LI-COR's Odyssey. GAPDH was detected with a 700 nm channel, and SHPTP2 was detected using SuperSignal West Pico PLUS Chemiluminescent Substrate.

SMILES: CC(=O)N[C@H](C(=O)N1C[C@H](O)C[C@H]1C(=O)NCc1ccc(-c2scnc2C)cc1OC1CCN(C(=O)C2CCN(c3nccc(Sc4cnc(N5CCC(C)(N)CC5)cn4)c3Cl)CC2)CC1)C(C)(C)C [Example 76, (2S,4R)-1-((S)-2-acetamido-3,3-dimethylbutanoyl)-N-(2-((1-(1-(4-((5-(4-amino-4-methylpiperidin-1-yl)pyrazin-2-yl)thio)-3-chloropyridin-2-yl)piperidine-4-carbonyl)piperidin-4-yl)oxy)-4-(4-methylthiazol-5-yl)benzyl)-4-hydroxypyrrolidine-2-carboxamide]
- SHP2% degradation (0.01 μM): 90.0%
- SHP2% degradation (0.1 μM): 98.7%

SMILES: Cc1ncsc1-c1ccc(CNC(=O)[C@@H]2C[C@@H](O)CN2C(=O)[C@@H](NC(=O)C2(F)CC2)C(C)(C)C)c(OC2CCN(CC3(O)CCN(c4nccc(Sc5cnc(N6CCC(C)(CN)CC6)cn5)c4Cl)CC3)CC2)c1 [Example 10, (2S,4R)—N-(2-((1-((1-(4-((5-(4-(aminomethyl)-4-methylpiperidin-1-yl)pyrazin-2-yl)thio)-3-chloropyridin-2-yl)-4-hydroxypiperidin-4-yl)methyl)piperidin-4-yl)oxy)-4-(4-methylthiazol-5-yl)benzyl)-1-((S)-2-(1-fluorocyclopropane-1-carboxamido)-3,3-dimethylbutanoyl)-4-hydroxypyrrolidine-2-carboxamide]
- SHP2% degradation (0.01 μM): −8.0%
- SHP2% degradation (0.1 μM): 93.9%

SMILES: Cc1ncsc1-c1ccc(CNC(=O)[C@@H]2C[C@@H](O)CN2C(=O)[C@H](C(C)C)n2cc(C3CC3)nn2)c(OC2CCN(C(=O)C3CCN(c4nccc(Sc5cnc(N6CCC(C)(N)CC6)cn5)c4Cl)CC3)CC2)c1 [Example 102, (2S,4R)—N-(2-((1-(1-(4-((5-(4-amino-4-methylpiperidin-1-yl)pyrazin-2-yl)thio)-3-chloropyridin-2-yl)piperidine-4-carbonyl)piperidin-4-yl)oxy)-4-(4-methylthiazol-5-yl)benzyl)-1-((S)-2-(4-cyclopropyl-1H-1,2,3-triazol-1-yl)-3-methylbutanoyl)-4-hydroxypyrrolidine-2-carboxamide]
- SHP2% degradation (0.01 μM): 99.4%
- SHP2% degradation (0.1 μM): 99.8%

SMILES: Cc1ncsc1-c1ccc(CNC(=O)[C@@H]2C[C@@H](O)CN2C(=O)[C@H](C(C)C)n2cc(C3CC3)nn2)c(OC2CCN(C(=O)C3CCN(c4nccc(Sc5cnc(N6CCC(C)(N)CC6)c(CO)n5)c4Cl)CC3)CC2)c1 [Example 105, (2S,4R)—N-(2-((1-(1-(4-((5-(4-amino-4-methylpiperidin-1-yl)-6-(hydroxymethyl)pyrazin-2-yl)thio)-3-chloropyridin-2-yl)piperidine-4-carbonyl)piperidin-4-yl)oxy)-4-(4-methylthiazol-5-yl)benzyl)-1-((S)-2-(4-cyclopropyl-1H-1,2,3-triazol-1-yl)-3-methylbutanoyl)-4-hydroxypyrrolidine-2-carboxamide]
- SHP2% degradation (0.01 μM): 98.4%
- SHP2% degradation (0.1 μM): 97.9%

The remaining lines, values ahead:

- SHP2% degradation (0.01 μM): 96.1%
- SHP2% degradation (0.1 μM): 99.9%
SMILES: CC(=O)N[C@H](C(=O)N1C[C@H](O)C[C@H]1C(=O)NCc1ccc(-c2scnc2C)cc1OC1CCN(C(=O)C2CCN(c3nccc(Sc4cnc(N5CCC(C)(N)CC5)c(CO)n4)c3Cl)CC2)CC1)C(C)(C)C [Example 79, (2S,4R)-1-((S)-2-acetamido-3,3-dimethylbutanoyl)-N-(2-((1-(1-(4-((5-(4-amino-4-methylpiperidin-1-yl)-6-(hydroxymethyl)pyrazin-2-yl)thio)-3-chloropyridin-2-yl)piperidine-4-carbonyl)piperidin-4-yl)oxy)-4-(4-methylthiazol-5-yl)benzyl)-4-hydroxypyrrolidine-2-carboxamide]

- SHP2% degradation (0.01 μM): 99.6%
- SHP2% degradation (0.1 μM): 99.5%
SMILES: CC(=O)N[C@H](C(=O)N1C[C@H](O)C[C@H]1C(=O)NCc1ccc(-c2scnc2C)cc1OC1CCN(C(=O)C2CCN(c3nccc(Sc4cnc(N5CCC6(CC5)CO[C@@H](C)[C@H]6N)c(CO)n4)c3Cl)CC2)CC1)C(C)(C)C [Example 80, (2S,4R)-1-((S)-2-acetamido-3,3-dimethylbutanoyl)-N-(2-((1-(1-(4-((5-((3S,4S)-4-amino-3-methyl-2-oxa-8-azaspiro[4.5]decan-8-yl)-6-(hydroxymethyl)pyrazin-2-yl)thio)-3-chloropyridin-2-yl)piperidine-4-carbonyl)piperidin-4-yl)oxy)-4-(4-methylthiazol-5-yl)benzyl)-4-hydroxypyrrolidine-2-carboxamide]

- SHP2% degradation (0.01 μM): 96.2%
- SHP2% degradation (0.1 μM): 99.8%
SMILES: Cc1cn([C@H](C(=O)N2C[C@H](O)C[C@H]2C(=O)NCc2ccc(C#N)cc2OC2CCN(C(=O)C3CCN(c4nccc(Sc5cnc(N6CCC7(CC6)CO[C@@H](C)[C@H]7N)c(CO)n5)c4Cl)CC3)CC2)C(C)C)nn1 [Example 113, (2S,4R)—N-(2-((1-(1-(4-((5-((3S,4S)-4-amino-3-methyl-2-oxa-8-azaspiro[4.5]decan-8-yl)-6-(hydroxymethyl)pyrazin-2-yl)thio)-3-chloropyridin-2-yl)piperidine-4-carbonyl)piperidin-4-yl)oxy)-4-cyanobenzyl)-4-hydroxy-1-((S)-3-methyl-2-(4-methyl-1H-1,2,3-triazol-1-yl)butanoyl)pyrrolidine-2-carboxamide]

- SHP2% degradation (0.01 μM): 97.0%
- SHP2% degradation (0.1 μM): 99.9%
SMILES: Cc1ncsc1-c1ccc(CNC(=O)[C@@H]2C[C@@H](O)CN2C(=O)[C@@H](NC(=O)CC#N)C(C)(C)C)c(OC2CCN(C(=O)C3CCN(c4nccc(Sc5cnc(N6CCC7(CC6)CO[C@@H](C)[C@H]7N)c(CO)n5)c4Cl)CC3)CC2)c1 [Example 88, (2S,4R)—N-(2-((1-(1-(4-((5-((3S,4S)-4-amino-3-methyl-2-oxa-8-azaspiro[4.5]decan-8-yl)-6-(hydroxymethyl)pyrazin-2-yl)thio)-3-chloropyridin-2-yl)piperidine-4-carbonyl)piperidin-4-yl)oxy)-4-(4-methylthiazol-5-yl)benzyl)-1-((S)-2-(2-cyanoacetamido)-3,3-dimethylbutanoyl)-4-hydroxypyrrolidine-2-carboxamide]
